Test results from ChEMBL document CHEMBL4507260 (2021).

Assays:
Settings in all cases: Compound concentration 1000.0 nM
[1] = target: Tyrosine-protein kinase Fes/Fps (Homo sapiens) (UniProt P07332)
[2] = target: Tyrosine-protein kinase ABL2 (Homo sapiens) (UniProt P42684)
[3] = target: Vascular endothelial growth factor receptor 1 (Homo sapiens) (UniProt P17948)
[4] = target: Tyrosine-protein kinase Fyn (Homo sapiens) (UniProt P06241)
[5] = test system: Tyrosine-protein kinase ABL1 (Homo sapiens), P00519 [Q252H]
[6] = target: Activin receptor type-2B (Homo sapiens) (UniProt Q13705)
[7] = test system: Epidermal growth factor receptor (Homo sapiens), P00533 [G719S]
[8] = target: Activin receptor type-2A (Homo sapiens) (UniProt P27037)
[9] = target: Mitogen-activated protein kinase 8 (Homo sapiens) (UniProt P45983)
Chain of Mitogen-activated protein kinase 8 (Homo sapiens) (P45983 whole entry): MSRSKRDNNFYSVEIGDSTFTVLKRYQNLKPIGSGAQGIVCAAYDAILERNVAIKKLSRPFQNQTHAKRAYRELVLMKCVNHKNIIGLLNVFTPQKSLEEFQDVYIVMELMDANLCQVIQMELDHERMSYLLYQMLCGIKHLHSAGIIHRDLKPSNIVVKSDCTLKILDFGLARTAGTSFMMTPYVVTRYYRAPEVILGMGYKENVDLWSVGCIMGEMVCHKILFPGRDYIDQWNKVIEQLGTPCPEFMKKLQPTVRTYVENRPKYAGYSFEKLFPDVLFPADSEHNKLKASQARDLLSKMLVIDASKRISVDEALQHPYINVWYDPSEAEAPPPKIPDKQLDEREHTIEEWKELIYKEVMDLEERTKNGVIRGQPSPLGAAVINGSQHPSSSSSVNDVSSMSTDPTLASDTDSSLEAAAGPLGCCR

[10] = target: Focal adhesion kinase 1 (Homo sapiens) (UniProt Q05397)
[11] = target: Tyrosine-protein kinase Lck (Homo sapiens) (UniProt P06239)
[12] = target: Receptor tyrosine-protein kinase erbB-2 (Homo sapiens) (UniProt P04626)
[13] = target: Tyrosine-protein kinase Lyn (Homo sapiens) (UniProt P07948)
[14] = target: Serine/threonine-protein kinase B-raf (Homo sapiens) (UniProt P15056)
[15] = target: Receptor-type tyrosine-protein kinase FLT3 (Homo sapiens) (UniProt P36888)
[16] = test system: Mast/stem cell growth factor receptor Kit (Homo sapiens), P10721 [V559D,V654A]
Chain of Mast/stem cell growth factor receptor Kit (Homo sapiens), P10721 [V559D,V654A] (P10721 whole entry V559D/V654A): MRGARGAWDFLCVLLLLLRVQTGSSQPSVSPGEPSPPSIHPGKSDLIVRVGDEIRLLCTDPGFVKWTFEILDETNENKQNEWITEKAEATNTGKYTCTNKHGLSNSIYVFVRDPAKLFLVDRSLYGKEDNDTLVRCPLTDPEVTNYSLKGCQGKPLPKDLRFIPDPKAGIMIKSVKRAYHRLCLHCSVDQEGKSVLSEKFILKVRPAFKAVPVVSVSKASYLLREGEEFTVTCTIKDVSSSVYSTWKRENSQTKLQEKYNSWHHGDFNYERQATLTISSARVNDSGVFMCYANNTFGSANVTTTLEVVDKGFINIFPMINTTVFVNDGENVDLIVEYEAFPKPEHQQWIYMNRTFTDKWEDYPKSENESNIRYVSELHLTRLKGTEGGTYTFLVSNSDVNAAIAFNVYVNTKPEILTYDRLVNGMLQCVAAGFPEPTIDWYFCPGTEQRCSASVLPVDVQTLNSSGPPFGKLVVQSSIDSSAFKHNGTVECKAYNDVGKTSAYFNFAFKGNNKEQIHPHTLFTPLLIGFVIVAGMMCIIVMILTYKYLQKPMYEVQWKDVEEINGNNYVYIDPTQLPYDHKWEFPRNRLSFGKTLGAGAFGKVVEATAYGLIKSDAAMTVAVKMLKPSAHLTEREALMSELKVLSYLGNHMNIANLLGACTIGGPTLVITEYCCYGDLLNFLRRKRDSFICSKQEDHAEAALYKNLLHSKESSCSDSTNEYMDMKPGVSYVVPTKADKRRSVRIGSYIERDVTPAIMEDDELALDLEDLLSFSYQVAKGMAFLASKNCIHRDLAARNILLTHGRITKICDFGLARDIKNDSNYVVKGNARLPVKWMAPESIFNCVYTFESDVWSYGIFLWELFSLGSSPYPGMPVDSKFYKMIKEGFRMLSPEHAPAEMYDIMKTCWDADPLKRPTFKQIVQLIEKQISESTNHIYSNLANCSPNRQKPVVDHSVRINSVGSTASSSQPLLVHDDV

[17] = target: Serine/threonine-protein kinase Nek3 (Homo sapiens) (UniProt P51956)
Chain of Serine/threonine-protein kinase Nek3 (Homo sapiens) (P51956 whole entry): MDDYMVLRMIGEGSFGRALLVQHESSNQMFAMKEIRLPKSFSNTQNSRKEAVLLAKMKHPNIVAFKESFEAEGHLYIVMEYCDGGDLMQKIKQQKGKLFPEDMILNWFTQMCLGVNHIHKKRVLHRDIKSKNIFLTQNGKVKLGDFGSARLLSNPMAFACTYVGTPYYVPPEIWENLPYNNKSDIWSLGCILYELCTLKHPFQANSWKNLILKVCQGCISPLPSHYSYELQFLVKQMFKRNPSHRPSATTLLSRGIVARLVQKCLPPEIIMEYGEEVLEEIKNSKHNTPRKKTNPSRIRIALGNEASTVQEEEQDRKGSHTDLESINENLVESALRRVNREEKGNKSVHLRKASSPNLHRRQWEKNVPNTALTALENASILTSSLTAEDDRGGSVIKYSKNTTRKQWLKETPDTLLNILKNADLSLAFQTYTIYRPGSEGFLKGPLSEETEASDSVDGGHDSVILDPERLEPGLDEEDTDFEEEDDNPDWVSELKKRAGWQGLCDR

[18] = target: Serine/threonine-protein kinase 26 (Homo sapiens) (UniProt Q9P289)
[19] = target: Cyclin-dependent kinase 7 (Homo sapiens) (UniProt P50613)
[20] = target: Tyrosine-protein kinase ABL1 (Homo sapiens) (UniProt P00519)
[21] = target: Serine/threonine-protein kinase ICK (Homo sapiens) (UniProt Q9UPZ9)
[22] = target: LIM domain kinase 1 (Homo sapiens) (UniProt P53667)
[23] = target: Calcium-dependent protein kinase 1 (Plasmodium falciparum) (UniProt P62344)
[24] = target: Myosin-IIIa (Homo sapiens) (UniProt Q8NEV4)
[25] = target: SRSF protein kinase 3 (Homo sapiens) (UniProt Q9UPE1)
[26] = target: Phosphatidylinositol 4-phosphate 5-kinase type-1 gamma (Homo sapiens) (UniProt O60331)
[27] = target: Serine/threonine-protein kinase Nek10 (Homo sapiens) (UniProt Q6ZWH5)
[28] = target: Peripheral plasma membrane protein CASK (Homo sapiens) (UniProt O14936)
[29] = target: SRSF protein kinase 1 (Homo sapiens) (UniProt Q96SB4)
[30] = target: cGMP-dependent protein kinase 1 (Homo sapiens) (UniProt Q13976)
[31] = target: Serine/threonine-protein kinase Sgk2 (Homo sapiens) (UniProt Q9HBY8)
Chain of Serine/threonine-protein kinase Sgk2 (Homo sapiens) (Q9HBY8 whole entry): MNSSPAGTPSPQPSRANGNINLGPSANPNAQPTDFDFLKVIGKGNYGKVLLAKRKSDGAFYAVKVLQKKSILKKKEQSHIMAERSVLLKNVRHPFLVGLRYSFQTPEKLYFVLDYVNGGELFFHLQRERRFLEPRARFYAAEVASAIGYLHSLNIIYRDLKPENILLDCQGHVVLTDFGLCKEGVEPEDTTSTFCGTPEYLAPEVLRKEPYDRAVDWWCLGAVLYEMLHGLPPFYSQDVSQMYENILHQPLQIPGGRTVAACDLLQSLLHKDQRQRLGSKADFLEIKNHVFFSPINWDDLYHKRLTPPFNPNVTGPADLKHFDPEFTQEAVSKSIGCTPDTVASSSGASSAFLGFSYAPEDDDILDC

[32] = target: NUAK family SNF1-like kinase 1 (Homo sapiens) (UniProt O60285)
[33] = target: Tyrosine-protein kinase receptor UFO (Homo sapiens) (UniProt P30530)
[34] = target: Vascular endothelial growth factor receptor 3 (Homo sapiens) (UniProt P35916)
[35] = target: Glycogen synthase kinase-3 alpha (Homo sapiens) (UniProt P49840)
Chain of Glycogen synthase kinase-3 alpha (Homo sapiens) (P49840 2-483 limits assumed): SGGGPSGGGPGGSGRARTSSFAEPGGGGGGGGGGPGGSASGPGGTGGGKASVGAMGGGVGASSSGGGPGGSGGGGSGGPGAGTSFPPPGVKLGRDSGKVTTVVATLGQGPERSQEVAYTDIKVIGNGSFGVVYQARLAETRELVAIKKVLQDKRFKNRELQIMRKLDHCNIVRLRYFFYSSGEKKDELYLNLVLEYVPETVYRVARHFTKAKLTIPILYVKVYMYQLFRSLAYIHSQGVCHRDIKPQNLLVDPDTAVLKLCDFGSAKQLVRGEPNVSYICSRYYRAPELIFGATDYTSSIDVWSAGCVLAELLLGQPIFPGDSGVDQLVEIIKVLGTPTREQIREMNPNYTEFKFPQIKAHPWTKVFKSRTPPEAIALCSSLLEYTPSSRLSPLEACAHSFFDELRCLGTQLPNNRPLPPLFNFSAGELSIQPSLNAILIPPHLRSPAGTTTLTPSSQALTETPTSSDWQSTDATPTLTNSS

[36] = target: Mitogen-activated protein kinase kinase kinase kinase 4 (Homo sapiens) (UniProt O95819)
[37] = target: Serine/threonine-protein kinase SIK3 (Homo sapiens) (UniProt Q9Y2K2)
[38] = target: Ephrin type-B receptor 1 (Homo sapiens) (UniProt P54762)
[39] = target: Mitogen-activated protein kinase 10 (Homo sapiens) (UniProt P53779)
[40] = target: Activated CDC42 kinase 1 (Homo sapiens) (UniProt Q07912)
Chain of Activated CDC42 kinase 1 (Homo sapiens) (Q07912 whole entry, looked up): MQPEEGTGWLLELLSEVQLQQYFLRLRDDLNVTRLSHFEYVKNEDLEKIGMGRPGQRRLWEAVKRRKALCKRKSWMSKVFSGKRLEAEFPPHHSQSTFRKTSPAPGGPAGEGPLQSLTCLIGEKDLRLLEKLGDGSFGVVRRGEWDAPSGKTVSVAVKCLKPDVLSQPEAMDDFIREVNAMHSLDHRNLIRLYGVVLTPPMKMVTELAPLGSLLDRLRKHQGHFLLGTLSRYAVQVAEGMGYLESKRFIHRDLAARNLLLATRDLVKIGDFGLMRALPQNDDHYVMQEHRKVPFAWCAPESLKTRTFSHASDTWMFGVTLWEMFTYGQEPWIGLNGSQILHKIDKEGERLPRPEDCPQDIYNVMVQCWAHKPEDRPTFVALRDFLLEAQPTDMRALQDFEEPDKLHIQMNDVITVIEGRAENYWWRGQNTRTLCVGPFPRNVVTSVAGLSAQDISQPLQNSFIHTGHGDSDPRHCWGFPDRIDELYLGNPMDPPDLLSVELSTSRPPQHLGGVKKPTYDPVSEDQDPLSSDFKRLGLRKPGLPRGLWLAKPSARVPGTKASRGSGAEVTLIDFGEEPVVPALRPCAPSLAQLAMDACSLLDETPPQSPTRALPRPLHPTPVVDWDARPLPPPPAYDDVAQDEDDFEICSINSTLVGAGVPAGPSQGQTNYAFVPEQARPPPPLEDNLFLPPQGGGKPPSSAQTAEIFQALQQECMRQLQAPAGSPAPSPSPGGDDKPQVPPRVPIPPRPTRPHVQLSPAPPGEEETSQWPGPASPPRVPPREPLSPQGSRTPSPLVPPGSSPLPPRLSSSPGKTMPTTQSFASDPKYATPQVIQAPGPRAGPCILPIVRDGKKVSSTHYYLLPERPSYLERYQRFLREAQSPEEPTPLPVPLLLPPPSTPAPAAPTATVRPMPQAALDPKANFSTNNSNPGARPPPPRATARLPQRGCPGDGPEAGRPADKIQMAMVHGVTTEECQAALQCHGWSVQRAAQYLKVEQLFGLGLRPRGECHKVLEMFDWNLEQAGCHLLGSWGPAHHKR

[41] = target: Ribosomal protein S6 kinase alpha-2 (Homo sapiens) (UniProt Q15349)
Chain of Ribosomal protein S6 kinase alpha-2 (Homo sapiens) (Q15349 whole entry): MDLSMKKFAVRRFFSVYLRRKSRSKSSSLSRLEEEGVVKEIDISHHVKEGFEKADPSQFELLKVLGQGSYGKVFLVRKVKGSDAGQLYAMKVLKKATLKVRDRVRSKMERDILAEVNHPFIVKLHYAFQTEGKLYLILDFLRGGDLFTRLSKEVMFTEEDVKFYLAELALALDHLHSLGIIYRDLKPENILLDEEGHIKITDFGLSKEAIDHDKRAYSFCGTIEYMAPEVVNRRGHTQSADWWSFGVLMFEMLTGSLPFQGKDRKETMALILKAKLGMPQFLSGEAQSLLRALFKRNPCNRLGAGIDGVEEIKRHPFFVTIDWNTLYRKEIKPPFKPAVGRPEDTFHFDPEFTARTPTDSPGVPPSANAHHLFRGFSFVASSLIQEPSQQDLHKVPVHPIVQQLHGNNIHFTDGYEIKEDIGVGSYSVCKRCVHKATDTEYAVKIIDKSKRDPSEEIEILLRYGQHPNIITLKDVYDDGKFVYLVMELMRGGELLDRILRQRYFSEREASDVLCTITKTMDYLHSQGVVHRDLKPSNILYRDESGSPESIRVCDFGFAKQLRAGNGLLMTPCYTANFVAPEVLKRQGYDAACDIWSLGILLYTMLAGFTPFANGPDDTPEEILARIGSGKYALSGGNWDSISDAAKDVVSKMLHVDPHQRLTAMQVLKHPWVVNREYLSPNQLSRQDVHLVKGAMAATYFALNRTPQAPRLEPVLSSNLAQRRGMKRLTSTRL

[42] = target: Cyclin-dependent kinase 15 (Homo sapiens) (UniProt Q96Q40)
[43] = test system: Phosphatidylinositol 4,5-bisphosphate 3-kinase catalytic subunit alpha isoform (Homo sapiens), P42336 [E545K]
[44] = target: Serine/threonine-protein kinase RIO2 (Homo sapiens) (UniProt Q9BVS4)
[45] = target: Cyclin-dependent kinase 4 (Homo sapiens) (UniProt P11802)
[46] = target: Serine/threonine-protein kinase pim-1 (Homo sapiens) (UniProt P11309)
Chain of Serine/threonine-protein kinase pim-1 (Homo sapiens) (P11309 whole entry, looked up): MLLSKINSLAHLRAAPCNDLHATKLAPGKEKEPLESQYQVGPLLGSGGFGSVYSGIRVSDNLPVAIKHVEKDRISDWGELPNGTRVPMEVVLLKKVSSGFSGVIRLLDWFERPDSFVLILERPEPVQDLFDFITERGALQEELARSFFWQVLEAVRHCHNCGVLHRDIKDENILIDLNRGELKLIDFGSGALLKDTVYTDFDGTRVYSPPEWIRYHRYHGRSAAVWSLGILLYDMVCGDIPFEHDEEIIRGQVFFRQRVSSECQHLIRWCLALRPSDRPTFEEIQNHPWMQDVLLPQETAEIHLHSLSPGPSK

**Q.** Which residual activity [1] does the source give for `CSc1cccnc1N1CCN(Cc2nc3ccccc3[nH]2)CC1` [A-769] here?
**A.** 98%

**Q.** What about the residual activity [2] of the same compound?
**A.** 98%

**Q.** What about the residual activity [3] of the same compound?
**A.** 100%

**Q.** What about the residual activity [4] of the same compound?
**A.** 100%

**Q.** And the residual activity [5]?
**A.** 67%

**Q.** And the residual activity [6]?
**A.** 98%

**Q.** What about the residual activity [7] of the same compound?
**A.** 98%

**Q.** What about the residual activity [8] of the same compound?
**A.** 69%

**Q.** What about the residual activity [9] of the same compound?
**A.** 77%

**Q.** What about the residual activity [10] of the same compound?
**A.** 100%

**Q.** What about the residual activity [11] of the same compound?
**A.** 100%

**Q.** And the residual activity [12]?
**A.** 88%

**Q.** What about the residual activity [13] of the same compound?
**A.** 95%

**Q.** What about the residual activity [14] of the same compound?
**A.** 89%

**Q.** And the residual activity [15]?
**A.** 91%

**Q.** And the residual activity [16]?
**A.** 100%

**Q.** And the residual activity [17]?
**A.** 88%

**Q.** What about the residual activity [18] of the same compound?
**A.** 95%

**Q.** And the residual activity [19]?
**A.** 61%

**Q.** What about the residual activity [20] of the same compound?
**A.** 70%

**Q.** What about the residual activity [21] of the same compound?
**A.** 68%

**Q.** What about the residual activity [22] of the same compound?
**A.** 100%

**Q.** What about the residual activity [23] of the same compound?
**A.** 89%

**Q.** What about the residual activity [24] of the same compound?
**A.** 100%

**Q.** What about the residual activity [25] of the same compound?
**A.** 100%

**Q.** And the residual activity [26]?
**A.** 100%

**Q.** What about the residual activity [27] of the same compound?
**A.** 78%

**Q.** And the residual activity [28]?
**A.** 100%

**Q.** And the residual activity [29]?
**A.** 100%

**Q.** And the residual activity [30]?
**A.** 100%

**Q.** What about the residual activity [31] of the same compound?
**A.** 81%

**Q.** What about the residual activity [32] of the same compound?
**A.** 100%

**Q.** What about the residual activity [33] of the same compound?
**A.** 100%

**Q.** What about the residual activity [34] of the same compound?
**A.** 100%

**Q.** And the residual activity [35]?
**A.** 100%

**Q.** And the residual activity [36]?
**A.** 95%

**Q.** What about the residual activity [37] of the same compound?
**A.** 100%

**Q.** What about the residual activity [38] of the same compound?
**A.** 99%

**Q.** And the residual activity [39]?
**A.** 66%

**Q.** And the residual activity [40]?
**A.** 100%

**Q.** What about the residual activity [41] of the same compound?
**A.** 100%

**Q.** And the residual activity [42]?
**A.** 100%

**Q.** What about the residual activity [43] of the same compound?
**A.** 74%

**Q.** What about the residual activity [44] of the same compound?
**A.** 100%

**Q.** What about the residual activity [45] of the same compound?
**A.** 84%

**Q.** And the residual activity [46]?
**A.** 100%

**Q.** With `c1ccc(N2CCN(Cc3nc4ccccc4[nH]3)CC2)nc1` [ABT-724] as the compound, how does the residual activity [1] read?
**A.** 100%

**Q.** What about the residual activity [2] of the same compound?
**A.** 100%

**Q.** And the residual activity [3]?
**A.** 100%

**Q.** What about the residual activity [4] of the same compound?
**A.** 100%

**Q.** What about the residual activity [5] of the same compound?
**A.** 93%

**Q.** What about the residual activity [6] of the same compound?
**A.** 100%

**Q.** What about the residual activity [7] of the same compound?
**A.** 91%

**Q.** What about the residual activity [8] of the same compound?
**A.** 100%

**Q.** And the residual activity [9]?
**A.** 100%

**Q.** And the residual activity [10]?
**A.** 86%

**Q.** And the residual activity [11]?
**A.** 100%

**Q.** What about the residual activity [12] of the same compound?
**A.** 78%

**Q.** And the residual activity [13]?
**A.** 100%

**Q.** And the residual activity [14]?
**A.** 100%

**Q.** What about the residual activity [15] of the same compound?
**A.** 100%

**Q.** And the residual activity [16]?
**A.** 100%

**Q.** What about the residual activity [17] of the same compound?
**A.** 100%

**Q.** And the residual activity [18]?
**A.** 100%

**Q.** And the residual activity [19]?
**A.** 48%

**Q.** And the residual activity [20]?
**A.** 80%

**Q.** And the residual activity [21]?
**A.** 100%

**Q.** What about the residual activity [22] of the same compound?
**A.** 100%

**Q.** What about the residual activity [23] of the same compound?
**A.** 99%

**Q.** And the residual activity [24]?
**A.** 100%

**Q.** What about the residual activity [25] of the same compound?
**A.** 100%

**Q.** And the residual activity [26]?
**A.** 93%

**Q.** What about the residual activity [27] of the same compound?
**A.** 100%

**Q.** And the residual activity [28]?
**A.** 97%

**Q.** And the residual activity [29]?
**A.** 100%

**Q.** And the residual activity [30]?
**A.** 100%

**Q.** What about the residual activity [31] of the same compound?
**A.** 100%

**Q.** What about the residual activity [32] of the same compound?
**A.** 89%

**Q.** What about the residual activity [33] of the same compound?
**A.** 100%

**Q.** What about the residual activity [34] of the same compound?
**A.** 100%

**Q.** What about the residual activity [35] of the same compound?
**A.** 66%

**Q.** What about the residual activity [36] of the same compound?
**A.** 100%

**Q.** What about the residual activity [37] of the same compound?
**A.** 91%

**Q.** And the residual activity [38]?
**A.** 100%

**Q.** And the residual activity [39]?
**A.** 100%

**Q.** What about the residual activity [40] of the same compound?
**A.** 100%

**Q.** And the residual activity [41]?
**A.** 100%

**Q.** And the residual activity [42]?
**A.** 95%

**Q.** And the residual activity [43]?
**A.** 59%

**Q.** And the residual activity [44]?
**A.** 100%

**Q.** And the residual activity [45]?
**A.** 100%

**Q.** What about the residual activity [46] of the same compound?
**A.** 90%
